The values that follow come from patent US8309577B2, “Quinuclidine compounds as α-7 nicotinic acetylcholine receptor ligands” (Bristol-Myers Squibb Company, priority 2008, dated 2012).

The target of the assay is T1, α-7 nicotinic acetylcholine receptor channel expressed in HEK 293 cells (Rattus norvegicus, UniProt Q05941).
T1 construct: expressed in transfected cells
The experiment in a line: Ca2+-sensitive fluorescence-based FLIPR assay, α7 nicotinic ACh receptor channel function (agonist). The format is cell-based. To be noted: HEK 293 cells, agonist Ca2+ flux. The procedure, abridged: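 Potency and efficacy derived from kinetic FLIPR Ca²⁺-flux fluorescence, recorded 3 min after compound addition in Hanks buffer following a 10 s baseline.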
(Calcium assays in cells follow changes in intracellular calcium, usually with a dye or a luminescent sensor.)

Where [1] appears, read: FLIPR α7 activity rating (EC50, nM), Table 1.
Setting [2] is: FLIPR α7 activity rating (EC50, nM), Table Ib.

Where only a bound is given, the exact number is not on record here.

T1 sequence (Q05941 23-502): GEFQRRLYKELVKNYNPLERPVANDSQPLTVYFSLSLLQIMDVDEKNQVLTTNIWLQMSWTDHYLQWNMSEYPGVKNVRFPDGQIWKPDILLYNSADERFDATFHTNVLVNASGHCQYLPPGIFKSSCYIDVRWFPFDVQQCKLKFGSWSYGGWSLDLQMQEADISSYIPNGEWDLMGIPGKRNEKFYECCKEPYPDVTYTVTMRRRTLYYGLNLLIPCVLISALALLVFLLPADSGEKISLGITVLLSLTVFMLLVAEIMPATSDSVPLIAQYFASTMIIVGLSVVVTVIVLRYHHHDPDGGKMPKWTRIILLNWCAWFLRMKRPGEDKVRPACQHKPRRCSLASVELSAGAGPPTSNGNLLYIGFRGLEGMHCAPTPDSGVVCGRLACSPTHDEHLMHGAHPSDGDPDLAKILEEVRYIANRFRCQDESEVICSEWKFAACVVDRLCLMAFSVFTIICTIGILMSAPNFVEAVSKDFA

For `Brc1cccc2cnc(NC3=NC[C@@]4(CN5CCC4CC5)O3)cc12` [Example 294, (R)—N-(5-bromoisoquinolin-3-yl)-4H-1′-azaspiro[oxazole-5,3′-bicyclo[2.2.2]octan]-2-amine], under setting [1], the EC50 (usually the concentration that produces a half-maximal response) is under 100 nM. For the compound `Cc1cc(C)c2cnc(NC3=NC[C@@]4(CN5CCC4CC5)O3)cc2c1` [Example 295, (2R)—N-(6,8-Dimethyl-3-isoquinolinyl)-4′H-spiro[4-azabicyclo[2.2.2]octane-2,5′-[1,3]oxazol]-2′-amine], the EC50 under setting [1] was in the range of 100 to 1000 nM.

Compound `c1cncc(-c2ccnc(NC3=NC[C@@]4(CN5CCC4CC5)O3)c2)c1` [Example 296, (R)—N-(3,4′-Bipyridin-2′-yl)-4H-1′-azaspiro[oxazole-5,3′-bicyclo[2.2.2]octan]-2-amine] had an EC50 under setting [2] of under 100 nM. With `Clc1cncc(-c2ccnc(NC3=NC[C@@]4(CN5CCC4CC5)O3)c2)c1` [Example 297, (R)—N-(5-Chloro-3,4′-bipyridin-2′-yl)-4H-1′-azaspiro[oxazole-5,3′-bicyclo[2.2.2]octan]-2-amine], the EC50 reads like this: (FLIPR α7 (EC50, nM), Table Ib) 35 nM; under setting [2], under 100 nM. As for `COc1ccc(-c2ccnc(NC3=NC[C@@]4(CN5CCC4CC5)O3)c2)cn1` [Example 298, (R)—N-(6-Methoxy-3,4′-bipyridin-2′-yl)-4H-1′-azaspiro[oxazole-5,3′-bicyclo[2.2.2]octan]-2-amine], the EC50 is 25 nM (FLIPR α7 (EC50, nM), Table Ib) and under 100 nM under setting [2]. Under setting [2], `Fc1ccc(-c2ccnc(NC3=NC[C@@]4(CN5CCC4CC5)O3)c2)cn1` [Example 299, (R)—N-(6-Fluoro-3,4′-bipyridin-2′-yl)-4H-1′-azaspiro[oxazole-5,3′-bicyclo[2.2.2]octan]-2-amine] gave an EC50 of under 100 nM. Consider `Fc1ccc(-c2ccnc(NC3=NC[C@@]4(CN5CCC4CC5)O3)c2)cc1Cl` [Example 300, (R)—N-(4-(3-Chloro-4-fluoro-phenyl)pyridin-2-yl)-4H-1′-azaspiro[oxazole-5,3′-bicyclo[2.2.2]octan]-2-amine], for which the EC50 under setting [2] was under 100 nM. `Cc1cccc(-c2ccnc(NC3=NC[C@@]4(CN5CCC4CC5)O3)c2)c1` [Example 301, (R)—N-(4-m-Tolylpyridin-2-yl)-4H-1′-azaspiro[oxazole-5,3′-bicyclo[2.2.2]octan]-2-amine] displayed an EC50 under setting [2] of under 100 nM. For the compound `c1ccc(-c2ccnc(NC3=NC[C@@]4(CN5CCC4CC5)O3)c2)cc1` [Example 302, (R)—N-(4-Phenylpyridin-2-yl)-4H-1′-azaspiro[oxazole-5,3′-bicyclo[2.2.2]octan]-2-amine], the EC50 runs as follows: (FLIPR α7 (EC50, nM), Table Ib) 9 nM; under setting [2], under 100 nM.

`Cn1cc(-c2ccnc(NC3=NC[C@@]4(CN5CCC4CC5)O3)c2)cn1` [Example 303, (R)—N-(4-(1-Methyl-1H-pyrazol-4-yl)pyridin-2-yl)-4H-1′-azaspiro[oxazole-5,3′-bicyclo[2.2.2]octan]-2-amine] returned an EC50 under setting [2] of under 100 nM.

Under setting [2], `c1cc(-c2cscn2)cc(NC2=NC[C@@]3(CN4CCC3CC4)O2)n1` [Example 304, (R)—N-(4-(Thiazol-4-yl)pyridin-2-yl)-4H-1′-azaspiro[oxazole-5,3′-bicyclo[2.2.2]octan]-2-amine] registered an EC50 of under 100 nM. In turn, `O=[N+]([O-])c1ccc(-c2ccnc(NC3=NC[C@@]4(CN5CCC4CC5)O3)c2)cn1` [Example 305, (R)—N-(6-Nitro-3,4′-bipyridin-2′-yl)-4H-1′-azaspiro[oxazole-5,3′-bicyclo[2.2.2]octan]-2-amine] showed a concentration giving a half-maximal response (EC50) under setting [2] of under 100 nM. With `Cc1nc(NC2=NC[C@@]3(CN4CCC3CC4)O2)ccc1Cl` [Example 306, (R)—N-(5-Chloro-6-methylpyridin-2-yl)-4H-1′-azaspiro[oxazole-5,3′-bicyclo[2.2.2]octan]-2-amine], the EC50 under setting [2] is under 100 nM. For the compound `Cc1cc(NC2=NC[C@@]3(CN4CCC3CC4)O2)ncc1F` [Example 307, (R)—N-(5-Fluoro-4-methylpyridin-2-yl)-4H-1′-azaspiro[oxazole-5,3′-bicyclo[2.2.2]octan]-2-amine], under setting [2], the EC50 is under 100 nM. With `Cc1nc(NC2=NC[C@@]3(CN4CCC3CC4)O2)c(Cl)cc1Cl` [Example 308, (R)—N-(3,5-Dichloro-6-methylpyridin-2-yl)-4H-1′-azaspiro[oxazole-5,3′-bicyclo[2.2.2]octan]-2-amine], the EC50 reads like this: (FLIPR α7 (EC50, nM), Table Ib) 59 nM; under setting [2], under 100 nM. For the compound `Cc1cnc(NC2=NC[C@@]3(CN4CCC3CC4)O2)cc1C` [Example 309, (R)—N-(4,5-Dimethylpyridin-2-yl)-4H-1′-azaspiro[oxazole-5,3′-bicyclo[2.2.2]octan]-2-amine], the EC50 under setting [2] was under 100 nM. `COc1ccc(NC2=NC[C@@]3(CN4CCC3CC4)O2)nc1` [Example 310, (R)—N-(5-Methoxypyridin-2-yl)-4H-1′-azaspiro[oxazole-5,3′-bicyclo[2.2.2]octan]-2-amine] came in with an EC50 under setting [2] of under 100 nM. Under setting [2], `Clc1c(NC2=NC[C@@]3(CN4CCC3CC4)O2)ncc2ccccc12` [Example 311, (R)—N-(4-Chloroisoquinolin-3-yl)-4H-1′-azaspiro[oxazole-5,3′-bicyclo[2.2.2]octan]-2-amine] yielded an EC50 of under 100 nM.

Consider `Fc1c(Cl)ccc2cc(NC3=NC[C@@]4(CN5CCC4CC5)O3)ncc12` [Example 312, (R)—N-(7-Chloro-8-fluoroisoquinolin-3-yl)-4H-1′-azaspiro[oxazole-5,3′-bicyclo[2.2.2]octan]-2-amine], for which the EC50 under setting [2] was under 100 nM.

`Cc1nc(NC2=NC[C@@]3(CN4CCC3CC4)O2)cc2ccccc12` [Example 313, (R)—N-(1-Methylisoquinolin-3-yl)-4H-1′-azaspiro[oxazole-5,3′-bicyclo[2.2.2]octan]-2-amine]: the EC50 under setting [2] was under 100 nM.

`Fc1ccc(-c2cc(NC3=NC[C@@]4(CN5CCC4CC5)O3)ncn2)cc1` [Example 314, (R)—N-(6-(4-Fluorophenyl)pyrimidin-4-yl)-4H-1′-azaspiro[oxazole-5,3′-bicyclo[2.2.2]octan]-2-amine] returned an EC50 under setting [2] of under 100 nM.

On to `Fc1cccc(-c2cc(NC3=NC[C@@]4(CN5CCC4CC5)O3)ncn2)c1` [Example 315, (R)—N-(6-(3-Fluorophenyl)pyrimidin-4-yl)-4H-1′-azaspiro[oxazole-5,3′-bicyclo[2.2.2]octan]-2-amine], for which, under setting [2], the EC50 was under 100 nM. Same read-out and setting: next, `Fc1cnc(NC2=NC[C@@]3(CN4CCC3CC4)O2)nc1` [Example 316, (R)—N-(5-Fluoropyrimidin-2-yl)-4H-1′-azaspiro[oxazole-5,3′-bicyclo[2.2.2]octan]-2-amine]: under 100 nM. `COc1cnc(NC2=NC[C@@]3(CN4CCC3CC4)O2)nc1Cl` [Example 317, (R)—N-(4-Chloro-5-methoxypyrimidin-2-yl)-4H-1′-azaspiro[oxazole-5,3′-bicyclo[2.2.2]octan]-2-amine]: the response (FLIPR α7 (EC50, nM), Table Ib) was half-maximal at 660 nM (EC50) and the EC50 under setting [2] lay in the range of 100 to 1000 nM.

For `Fc1cc(F)c2cnc(NC3=NC[C@@]4(CN5CCC4CC5)O3)cc2c1` [Example 318, (R)—N-(6,8-Difluoroisoquinolin-3-yl)-4H-1′-azaspiro[oxazole-5,3′-bicyclo[2.2.2]octan]-2-amine], the EC50 under setting [2] was under 100 nM. `Fc1cc2cnc(NC3=NC[C@@]4(CN5CCC4CC5)O3)cc2cc1F` [Example 319, (R)—N-(6,7-Difluoroisoquinolin-3-yl)-4H-1′-azaspiro[oxazole-5,3′-bicyclo[2.2.2]octan]-2-amine] had an EC50 under setting [2] of under 100 nM.
